# Test results taken from US7696174B2, “Short bio-active peptides for cellular and immunological modulation” (Helix Biomedix, Inc., priority 2007, dated 2010).
# Entries after “also recorded” stand apart in the source; their conditions may differ. Where two headings read alike, the source gives them in different places.
# How the values were obtained:
# [1] = test system: PAM 212 murine epidermal keratinocyte; experiment: Cell proliferation assay, PAM 212 murine epidermal keratinocytes; assay type: cell-based; conditions: for cell proliferation as a percent of control cell proliferation: control = cells treated with PBS only; for cell proliferation activity (in words): epidermal keratinocytes
# Method: To examine this question, an overlapping set of peptide fragments of HB-107 was generated using standard solid phase peptide chemistry. These peptides were then assayed for cell proliferation activity at concentrations of 0.22, 2.15, 21.5 and 46.4 μg/mL.
# The cell proliferation assays proceeded from the following experimental protocol:
# Cell Proliferation Assay Using a Mouse Keratinocyte Cell Line.
# OBJECTIVE: To determine the anti-proliferative or cytotoxic potential of a test article when applied to epidermal keratinocytes in culture.
# TEST SYSTEM: Either the murine keratinocyte cell line PAM212 or primary Normal Human Epidermal Keratinocytes (NHEK, from Clonetics) are preferred models, although other cells may be used.
# Keratinocytes are examined microscopically daily. As the culture becomes 50-75% confluent, the media in the plate is aspirated and 0.25% trypsin/EDTA is added (0.05% trypsin for human cells). When the cells become rounded, the trypsin is neutralized by addition of an equal volume of DMEM or KBM supplemented with approximately 10% bovine serum or by using trypsin neutralizing solution (TNS, from Clonetics). Cells are then centrifuged and the pellet is resuspended in 1 ml of DMEM-1 or KBM. A hemacytometer is used to count the cell suspension and the total number of cells/mL is adjusted to 1.5-2.5×10^4 cells/mL with DMEM-1 or KBM. Cells are then plated in 96-well plates at a concentration of 3.0-5.0×10^3 cells/well by adding 200 μL of the cell suspension to each well. Typically, the central 60 wells are used and the outer wells are filled with DMEM or PBS to minimize evaporation effects.
# A stock solution of the test article is prepared using DMEM-1 or KBM, and all other dilutions are henceforth prepared from this solution. Typically, each dilution is filtered through an 0.2-μm filter before application to the cell culture. A 1.0% (w/v or v/v) solution or suspension is prepared, and 10-fold or 3-fold serial dilutions are made in culture medium.
# The cells are examined 18-24 hours after plating to ensure cell attachment and division, and then 100 μL of the media is aspirated, leaving behind 100 μL in each well. Then 100 μL of a 2× concentration of each test article dilution is added to the replicate wells. For the negative control, 100 μL of the vehicle media (DMEM-1 or KBM) is added to the control wells. The microplate is then incubated at 37 degrees C. and 5.0% CO2 for 48-72 hours after dosing, and cells are allowed to proliferate undisturbed. Following this 48-72 hour exposure, all media is aspirated and proliferation is assessed by one of the below methods.
# Option A: neutral red uptake. After exposure and aspiration of media, 200 μL of neutral red media is immediately added to each well. The microplate is returned to the incubator for an additional three hours. Following this dye uptake period, the microplate is removed from the incubator and gently inverted, and the neutral red media is decanted into a collection pan. The cells are then fixed with fixing solution for approximately one minute. The fixing solution is decanted off, and the microplate is washed gently three times with washing solution. The washing solution is decanted, and 200 μL of lysing solution is added. After at least 15 minutes, the contents of each well are re-pipetted to ensure even color distribution in each well, and an aliquot is read on the spectrophotometer as detailed below.
# Option B: MTT conversion assay. After exposure and aspiration of media, 200 μL of MTT assay media is immediately added to each well. […] The microplate is returned to the incubator for an additional three hours. Following this dye uptake period, the microplate is removed from the incubator and gently inverted, and the MTT media is decanted into a collection pan. The cells are then washed gently three times with washing solution. The washing solution is decanted, and 200 μL of lysing solution is added. […]
# [2] = test system: UVB-induced IL6 expression in human skin epithelial cells (ATCC CRL-2592); experiment: UVB-induced IL6 expression in skin epithelial cells (ELISA); assay type: cell-based; conditions: for IL6 (OD 450): UVB 35 seconds, then 40 μg/mL peptide for twenty hours, UV only 0.7305, control 0.0730
# Method: FIG. 3: Effect of short peptides on UVB-induced IL6 expression in skin epithelial cells. Cells were exposed to UVB irradiation for 35 seconds, after which cells were incubated in complete medium (no serum) with 40 μg/mL peptide [HB-107 (SEQ ID NO:1), HB-802 (SEQ ID NO:12), HB-1410 (SEQ ID NO:15), HB-801 (SEQ ID NO:31)] for twenty hours. IL6 expression was then measured by ELISA. Refer to Example 4.
# An assay was performed to determine whether peptide fragments of HB-107 can induce anti-inflammatory activity in cells exposed to ultraviolet light. Human skin epithelial cells (ATCC CRL-2592) were seeded into 6-well plates and grown to more than 95% confluence in DMEM with 4 mM L-glutamine adjusted to contain 1.5 g/L sodium bicarbonate and 4.5 g/L glucose (complete medium) supplemented with 10% fetal bovine serum. The cells were serum starved for 5 hours prior to UVB treatment. UVB was generated using a UVLMS lamp (4W model, 3UV assembly, Upland, Calif.) with the irradiation wavelength set at 302 nm. The UV lamp was placed 12 cm above the tissue culture plate (6-well plate) and two wells were treated at one time to allow homogenous UVB irradiation. Cells were exposed to UVB irradiation (450 μW/cm^2, measured using a radiometer) in PBS to avoid ultraviolet light-induced generation of toxic photochemicals. IL6 expression was measured as an indicator of cell inflammatory activity in response to UVB.
# Individual peptides were screened to determine the effects thereof on UVB-induced IL6 expression in skin epithelial cells. Cells were exposed to UVB (450 μW/cm^2) for 35 seconds in PBS, after which the PBS was replaced with complete medium without serum in the presence or absence of 40 μg/ml peptide and incubated at 37 degrees C./5% CO2 for twenty hours. The supernatant media was then collected and centrifuged at 10,000 rpm to remove debris, prior to ELISA for human IL6 (CellSciences, Mass.).
# [3] = Lee et al., 2004; cited from earlier work
# [4] = test system: human epidermal keratinocyte; experiment: Keratinocyte cell migration assay (tissue culture scratch test); assay type: cell-based
# Text: Cell proliferation alone is not sufficient to aid in wound healing. Upon sustaining an injury, cells bordering the wound proliferate; the migration of such newly formed cells to close the injury (or chronic lesion of older, dysfunctional tissue) is of equal importance. To address this issue, HB-107 and peptide fragments thereof were examined using a keratinocyte cell migration assay based on a simple tissue culture scratch test. […] The protocol for this assay is standard and has been described by Shanley et al. (2004, Invest. Ophthalmol. Vis. Sci. 45:1088-1094), the article of which is herein incorporated by reference in its entirety.
# [5] = compared with cecropin B; cited from earlier work
# [6] = test system: IL6 expression in epithelial cells; experiment: Repression of IL6 expression in resting epithelial cells; assay type: cell-based; conditions: for % Change in IL6 expression / Change in IL6 versus PBS control: 20 μg/mL peptide
# Text: The protocol for this assay is standard and described by Murakami et al. (2004, J. Immunol. 172:[…]), the article of which is incorporated herein by reference in its entirety.
# [7] = 24 hr after addition of 20 μg/mL peptide
# [8] = 48 hr after addition of 20 μg/mL peptide
Substance,cell proliferation as a percent of control cell proliferation ([1]; 0.22 μg/mL peptide),cell proliferation as a percent of control cell proliferation ([1]; 2.15 μg/mL peptide),cell proliferation as a percent of control cell proliferation ([1]; 21.5 μg/mL peptide),cell proliferation as a percent of control cell proliferation ([1]; 46.4 μg/mL peptide),cell proliferation activity (in words) [1],IL6 (OD 450) [2],"amount of IL6, Average [6, 7]","amount of IL6, Well 1 [6, 7]","amount of IL6, Well 2 [6, 7]",% Change in IL6 expression ([6]; 24 hr),Change in IL6 versus PBS control ([6]; 24 hr),"amount of IL6, Average [6, 8]","amount of IL6, Well 1 [6, 8]","amount of IL6, Well 2 [6, 8]",% Change in IL6 expression ([6]; 48 hr),Change in IL6 versus PBS control ([6]; 48 hr),other results
"PKEKV (listed as Hyalophora cecropia) [HB-801, fragment of HB-107]",101%,100%,113%,131%,can induce cell proliferation,0.8275 OD 450,,,,,,,,,,,
"MPKEKVFLKIEKMGRNIRN (listed as Hyalophora cecropia) [HB-107, parent peptide, a fragment of cecropin B, an antimicrobial protein present in a species of moth, reference compound]",57%,75%,121%,126%,,0.7315 OD 450,286.065 pg/mL,307.58 pg/mL,264.55 pg/mL,−11.60%,−37.435,738.35 pg/mL,690.58 pg/mL,786.12 pg/mL,−24.30%,−236.685,wound healing in vivo (in words) [3]: does display epidermal wound healing qualities; also recorded: stimulate wound healing in vivo; percent closure of the scratch compared to initial width ([4]; 6 hr exposure to peptide): 52%; percent closure of the scratch compared to initial width ([4]; 10 hr exposure to peptide): 78%; bacteriostatic effects (in words) [5]: does not display the bacteriostatic effects
"PKEK (listed as Hyalophora cecropia) [HB-1410, fragment of HB-107]",,,,,,0.5105 OD 450,,,,,,,,,,,reduction of UVB-induced IL6 / anti-inflammatory activity (in words) [2]: capable of significantly reducing the level of IL6; reduction of UVB-induced IL6 / anti-inflammatory activity (in words) ([2]; listed as SEQ ID NO:15): having anti-inflammatory activity
"MPKEK (listed as Hyalophora cecropia) [HB-802, fragment of HB-107]",121%,130%,135%,133%,can induce cell proliferation,0.6500 OD 450,283.485 pg/mL,278.32 pg/mL,288.65 pg/mL,−12.50%,−40.435,768.045 pg/mL,774.07 pg/mL,762.02 pg/mL,−21.20%,−206.99,IL6 reduction / anti-inflammatory activity in resting cells (in words) [6]: decrease the level of IL6 expression to the same degree as the HB-107 parent peptide; also recorded: ability to reduce IL6 in resting cells; IL6 reduction / anti-inflammatory activity in resting cells (in words) ([6]; listed as SEQ ID:12): displays both proliferative and anti-inflammatory activities
